The values that follow come from patent publication US8975259B2, “Compositions and methods for inhibiting G protein signaling” (University of Rochester, priority 2007, dated 2015).

Assay [1] has as its system ERK1 and ERK2 activation in differentiated HL60 cells. Nature of the assay: fMLP-induced ERK1 and ERK2 activation in differentiated HL60 cells. In kind it is cell-based, human. The note with it: 10 μM compound, 1 μM fMLP; result in words. As to the method:
(§1) Cells were pretreated with DMSO or 10 μM compounds for 5 min prior to stimulation with 250 nM fMLP. […] Normalized peak Ca^2+ responses were pooled from three independent experiments each (mean±SEM). Cells were pretreated with DMSO (▪) or compounds (▴) for 5 min prior to stimulation. FIG. 5C is the same as A except 10 μM M201 was tested. […] Differentiated HL60 cells were treated with 10 μM compound prior to stimulation with 250 nM fMLP. Translocation of endogenous GRK2 was determined by Western blotting with a GRK2 antibody and quantitative chemiluminescence. Data are mean±SEM from 5 experiments, * P<0.05, **P<0.01 ANOVA. […] Differentiated HL60 cells stably over-expressing GFP-PHAkt were treated with 10 μM compound prior to stimulation with 100 nM fMLP. Translocation of GFP-PHAkt to the membrane was determined by Western blotting with an anti-GFP antibody and quantitative chemiluminescence. Data are mean±SEM from 4 experiments. *** P<0.001 ANOVA. […] Differentiated HL60 cells were pretreated with 10 μM of compound prior to stimulation with 1 μM fMLP for 5 min. Levels of phosphorylated and total ERK were determined by Western blotting.

In assay [2] the test system is fMLP-dependent Ca2+ release in differentiated HL60 cells. Nature of the assay: fMLP-dependent Ca2+ release in fura-2 loaded DMSO-differentiated HL60 cells. In kind it is cell-based, human. The note with it: 10 μM compound, 250 nM fMLP; result in words. As to the method:
as §1
Ca^2+ fluxes were measured using two 35 mL cultures of differentiated HL-60 neutrophil cultures (0.2×10^6 cells/mL). Cells were cultured for three days with in DMSO
(1.2%), washed in HSS and resuspended in 2 mL HBSS at a concentration of 7×10^s cells/mL. Addition of DMSO to the growth medium induces differentiation of these cells into morphologically and functionally mature neutrophils
(Collins, et al. (1978) Proc. Natl. Acad. Sci. USA 75:2458; Collins, et al. (1979) J. Exp. Med. 149:969). Neutrophils were preloaded with fura-2 (1 μM), a fluorescent Ca^2+-sensitive indicator (Suh, et al. (1996) J. Biol. Chem. 271:32753), for 45 minutes, washed with HBSS and resuspended in 2 mL of indicator-free HBSS. An 140 μL aliquote of cells was added to a total of 2 mL HBSS. Fluorescence ratios were taken by dual excitation at 340 and 380 nm and emission at 510 nm. After a stable baseline was established, either DMSO or NSC119910 was added and incubated for 5 minutes. […]

A further assay concerns the target T1, Fαi1GDPβ1γ2 heterotrimer (UniProt P54311+P63212).
T1 construct: made in house; host or cells: b-βγ: Sf9 insect cells
Put plainly: Dissociation of Fαi1 from preformed Fαi1β1γ2 heterotrimer (flow cytometry). Type of assay: binding. The note with it: result in words. (In flow cytometry, cells or beads pass a laser one at a time.)

The subject of another assay is PLCβ2. The note with it: Scott, et al. (2001); read-out: IC50 for inhibition of PLC β2 activation by Gβ1γ2; cited from earlier work.
Assay [3] deals with human δ opioid receptor (hDOR-CHO cells). Nature of the assay: Total inositol phosphate assay in hDOR-CHO cells. Type of assay: cell-based. Conditions: DPDPE, Deltorphin II, M119 10 μM; naltrindole 100 μM; result in words. How it is done: (§2) Chinese hamster ovary (CHO) cells stably expressing either the human κ (hKOR-CHO), δ (hDOR-CHO)(L. Toll, Stanford Research Institute, Palo Alto, Calif.) or μ (hMOR-CHO)(G. Uhl, National Institute on Drug Abuse, Baltimore, Md.) opioid receptor were used in the experiments. Cells in 6-well plates were labeled by adding 4 μCi of [^3H]inositol for 24 hr in inositol-free F-10 media, without serum. After labeling, LiCl was added directly to the labeling media at a final concentration of 10 mM. Ligands or peptides were added at the same time. The final volume of each well was 1 mL. The plates were put back in to the incubator at 37° C. for 30 min after which time the medium was aspirated and the plates were washed twice with 1× PBS. Ice-cold 50 mM formic acid, 1 mL, was added to the plates which were placed in the cold room at 4° C. for 30 min. After the incubation, the contents of the plates were applied to Dowex AG1-X8 columns and allowed to flow all the way through the column. The columns were washed, twice each, with 50 and 100 mM formic acid, for a total of four washes, followed by elution of the IP-containing fraction with 3 mL of 1.2 M ammonium formate/0.1 M formic acid. The eluted fraction was mixed with Scintisafe scintillation fluid, for high salt, and counted. The data are represented as the fold increase over control in total inositol phospates. All experiments were repeated three times and performed in duplicate. Control cells for each experiment were labeled with [^3H]inositol and LiCl, in the same manner as the treatment groups.

Assay [4] has as its system opioid-induced antinociception in mice. Put plainly: 55° C. warm-water tail-flick antinociception. The note with it: i.c.v., 20 min, 55° C. tail-flick; 95% CL in parentheses. In kind it is in vivo, mouse.
Assay [5] relates to human μ opioid receptor (hMOR-CHO cells). Nature of the assay: Total inositol phosphate assay in hMOR-CHO cells. Type of assay: cell-based. As to the method:
as §2

T1 sequence (P54311 whole entry): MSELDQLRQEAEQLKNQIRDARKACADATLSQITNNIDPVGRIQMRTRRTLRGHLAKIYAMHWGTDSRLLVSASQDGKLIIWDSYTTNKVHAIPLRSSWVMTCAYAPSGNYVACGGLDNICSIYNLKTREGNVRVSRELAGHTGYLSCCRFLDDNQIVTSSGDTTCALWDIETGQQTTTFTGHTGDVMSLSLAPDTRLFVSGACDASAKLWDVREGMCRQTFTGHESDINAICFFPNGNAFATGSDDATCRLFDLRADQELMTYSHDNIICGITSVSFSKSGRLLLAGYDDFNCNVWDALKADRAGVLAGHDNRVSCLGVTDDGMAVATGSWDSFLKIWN
T1 sequence (P63212 2-68 limits assumed): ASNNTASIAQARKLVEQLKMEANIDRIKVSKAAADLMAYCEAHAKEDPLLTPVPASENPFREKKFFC
Description for Fαi1GDPβ1γ2 heterotrimer: Assays were used to determine peptide effects on Gα-Gβγ interactions included competition and dissociation assays (Ghosh, et al. (2003) supra). […] To measure dissociation of Fan from b-Gβaγ2, 100 pM of Fa^ was incubated with 50 pM immobilized b-Gβ1γ2 at room temperature for 15-20 minutes. The fluorescence of bound Fαii subunit was measured, followed by the addition of a 200-fold excess of unlabeled Gcx±x or peptides and the amount of Fan remaining bound to the beads was measured at the indicated times.
The ability of peptides to dissociate a preformed hetero-trimer was assessed by comparing the rates of Fαi1 dissociation from Fαi1β1γ2 with excess unlabeled αi1 competitor (intrinsic dissocia-tion rate) and in the presence of a saturating concentration of peptide.

As for `O=C(O)c1cccc2cccc(-c3c4ccc(=O)c(O)c-4oc4c(O)c(O)ccc34)c12` [Compound M119K], the “effect on fMLP-induced activation of ERK1 and ERK2” value in assay [1] was “without interfering”. Also, the “effect on fMLP-induced Ca^2+ increase” value in assay [2] is listed as “block”.
As to `CC[C@H](C)[C@H](NC(=O)[C@H](CC(N)=O)NC(=O)[C@H](CC(C)C)NC(=O)[C@H](C)NC(=O)[C@H](CCCCN)NC(=O)[C@H](CCCNC(=N)N)NC(=O)[C@@H](NC(=O)[C@@H](N)CO)[C@@H](C)CC)C(=O)N[C@@H](CC(C)C)C(=O)NCC(=O)N[C@@H](Cc1ccc(O)cc1)C(=O)N1CCC[C@H]1C(=O)N[C@@H](CC(=O)O)C(=O)N[C@@H](Cc1ccc(O)cc1)C(=O)N[C@@H](CC(=O)O)C(=O)O` [SIRK], at Fαi1GDPβ1γ2 heterotrimer, the “promotion/acceleration of heterotrimer dissociation” value is “promotes dissociation”. For the same compound, the IC50 (commonly the midpoint of a concentration-inhibition curve) in the assay with PLCβ2 is 5 µM.
Turning to `Oc1ccc2c3c1O[C@H]1c4[nH]c5ccccc5c4C[C@@]4(O)[C@@H](C2)N(CC2CC2)CC[C@]314` [naltrindole], the “effect on IP generation over control treated cells” value in assay [3] is recorded as “no significant effect”.
As to [D-Pen^2,D-Pen^5]enkephalin [DPDPE], in assay [4], the “ED50 of opioid agonist alone” value worked out at 6.5 nmol. The “effect of compound by itself on IP production” value in assay [5] is reported as “no effect”. For the same compound, in assay [3], the “effect on IP generation over control treated cells” value is given as “neither DPDPE (10 μM) (FIG. 15C) nor Deltorphin II (10 μM) (FIG. 15D) significantly increased IP generation”.
